# According to publication PMC9476706, “Integrating pharmacokinetics and network analysis to investigate the mechanism of Moutan Cortex in blood-heat and blood stasis syndrome” (Chinese Medicine, 2022):
# What was measured:
# F2 = F2 expression in TNF-α induced HUVECs (ELISA, RT-qPCR); format: cell-based, Human; settings: HUVECs + 25 ng/mL TNF-α, 8 h, versus model group; for F2 protein expression: paeonol 50, paeoniflorin 500, quercetin 1, oxypaeoniflorin 500 μg/mL
# Experimental: (§1) After three or four passages, the HUVECs were digested with 0.25% trypsin and seeded in a 6-well plate with a density of 1 × 10^5 cells/mL for ELISA analysis and RT-qPCR. […] Afterwards, take the supernatant and measure according to the ELISA kit, and detect the OD value at the wavelength of 450. […] ChamQTMUniversalSYBR qPCR Master Mix (Vazyme Biotech Co., Ltd, Q711-02) was performed on a Real-time PCR System.
# APTT, PT and TT = assay: Coagulation test (APTT, PT, TT) in rabbit plasma; settings: for APTT: 10 μL solution, paeoniflorin 250, oxypaeoniflorin 500, quercetin 1, paeonol 50 μg/mL, blank 13.63 ± 0.49, n = 3; for effect on PT compared with blank / effect on TT compared with blank / effect on prolonging APTT compared with blank: in words
# Experimental: New Zealand white rabbits, after being fasted but with free access to water for 8 h, were anesthetized by intraperitoneal injection of 10.0% chloral hydrate at 0.3 mL/100 g. The blood collected from the carotid artery was anticoagulated with 3.8% sodium citrate (blood and dosage volume ratio of 9:1), and transferred to a vacuum blood-collection tube, which was then slowly inverted and mixed for 3 to 4 times, and centrifuged at 860 (× g) for 10 min to obtain the supernatant. […] Whereafter, 10 μL of monomer solution was added under the kit instructions to determine APTT, PT and TT using coagulation method.
# MAPK10 = MAPK10 mRNA expression in TNF-α induced HUVECs (RT-qPCR); format: cell-based, Human; settings: HUVECs + 25 ng/mL TNF-α, 8 h, paeonol 50, paeoniflorin 500, quercetin 1, oxypaeoniflorin 500 μg/mL, versus model group
# Experimental: as §1
# [1] = Pharmacokinetic study of nine absorbed components in rat serum after oral RMC extract (UHPLC-DAD); settings: for AUC / Cmax / MRT / half-life / Tmax: male, Sprague-Dawley, rat, serum, po, 10 mL/kg, oral RMC extract 10 mL/kg (equal to 6 g/mL of RMC) once a day for 7 days, n = 6; for time after which the compound was not detected: BHS-RMC rats;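 as to all read-outs here: BHS model made by subcutaneous yeast suspension then two adrenaline injections with ice-water immersion, normal rats given saline instead, serum analytes quantified by UHPLC-DAD at 254 nm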
# Experimental: Twenty-four male Sprague–Dawley rats (weighing 300 ± 20 g) were purchased from Animal Experiment Center, Guangdong Academy of Medical Sciences (Certificate no. SCXK2013-0002). The rats were kept in an environmentally controlled breeding room at a temperature of 22 ± 2 °C and a relative humidity of 55 ± 10% for 1 week before starting the experiments. They were fed with standard laboratory food and water. Both the animal’s care and the study protocol were conducted according to the National Institutes of Health Guide for the Care and Use of Laboratory Animals, and followed the guidelines of the Ethics Committee of Guangdong Pharmaceutical University.
# The rats were randomly divided into following four groups: normal groups (Normal groups), BHS model groups (BHS groups), normal group administrated with RMC extraction (N-RMC group), BHS group administrated with RMC extraction (BHS-RMC group), respectively. N-RMC group and BHS-RMC group rats were respectively orally administrated with RMC extraction (equal to 6 g/mL of RMC) for continuous 7 days at a dose of 10 mL/kg, once a day, 1 hour after the sixth day of administration. The rats in BHS groups and BHS-RMC group were subcutaneously injected with 10% aqueous suspension of yeast (10 mL/kg) and then subcutaneously injected with 0.1 mg/mL adrenaline hydrochloride solution twice (at a dose of 0.8 mL/kg, 4 h apart) while body temperature remained relatively steady high. Those rats were soaked in ice-water for 5 min keeping their heads outside surface between two subcutaneous injections of adrenaline hydrochloride solution [39, 40]. At the same time, the normal groups and N-RMC group rats were injected with the same dose of saline (10 mL/kg) subcutaneously. All rats were fasted for 12 h but free for water before taking the blood. On the seventh day, 0.3 mL blood samples were collected from fossa orbitalis vein at the time point of 0.083, 0.25, 0.5, 0.75, 1, 2, 3, 4, 6, 8, 10, 12 and 24 h after oral administration. All blood samples were immediately centrifuged at 13,680 (× g) for 10 min at 4 °C and the serum samples were obtained and stored at −80 °C until analysis.
# Firstly, 100 μL serum was spiked with 10 μL IS working solution to mix evenly, then 1 mL methanol was added to protein precipitation, and centrifuged at 1520 (× g) for 10 min at 4 °C. Secondly, the supernatant was collected with a clean tube carefully and filtered through 0.22 μm microporous filter head. Thirdly, the filtrate was evaporated to dryness under a stream of nitrogen at 40 °C. Finally, the residue was dissolved in 100 μL methanol and 10 μL of aliquot was injected into UHPLC-DAD system for analysis.
# The chromatography experiment was carried out using UPLC system (Thermo Fisher Scientific, USA). Chromatographic conditions were according to the paper published by our research group [37]. Column: Acquity UPLC® BEH Shield RP18 Column (2.1 mm × 100 mm, 1.7 μm, Waters, USA). The column temperature was maintained at 30 °C. Mobile phase: Acetonitrile (A) and 0.1% (v/v) formic acid in water (B). The gradient conditions: 0–10 min, 5–15% A; 10–20 min, 15–35% A; 20–30 min, 35–95% A; 30–32 min, 95% A. The samples were kept at 4 °C in the auto-sampler. Flow rate and sample size, 0.2 mL/min and 2 μL; column temperature and detection wavelength, 30 °C and 254 nm.
# The concentrations of nine components of all samples were processed by PKSolver pharmacokinetics software. Statistical comparisons among groups were performed with GraphPad Prism 8 using a One-Way ANOVA analysis. Data expressed as mean ± SD and a p value ≤ 0.05 was considered to be statistically significant.
# F7 = F7 expression in TNF-α induced HUVECs (ELISA, RT-qPCR); format: cell-based, Human; settings: HUVECs + 25 ng/mL TNF-α, 8 h, versus model group; for F7 protein expression: paeonol 50, paeoniflorin 500, quercetin 1, oxypaeoniflorin 500 μg/mL
# Experimental: as §1
# F10 = F10 expression in TNF-α induced HUVECs (ELISA, RT-qPCR); format: cell-based, Human; settings: HUVECs + 25 ng/mL TNF-α, 8 h; paeonol 50, paeoniflorin 500, quercetin 1, oxypaeoniflorin 500 μg/mL; versus model group
# Experimental: as §1
# APTT = test system: APTT; parameters: method as in doi:10.5246/jcps.2018.09.062; settings: cited from earlier work
# AKT = AKT expression in TNF-α induced HUVECs (RT-qPCR); format: cell-based, Human; settings: HUVECs + 25 ng/mL TNF-α, 8 h, oxypaeoniflorin 500 μg/mL, versus model group
# Experimental: as §1
# [2] = BHS-RMC versus N-RMC rats, oral RMC extract
# [3] = T1/2, BHS-RMC group (BHS model rats)
# [4] = T1/2, N-RMC group (normal rats)
Compound,AUC ([1]; BHS-RMC group (BHS model rats)),AUC ([1]; N-RMC group (normal rats)),Cmax ([1]; BHS-RMC group (BHS model rats)),Cmax ([1]; N-RMC group (normal rats)),MRT ([1]; BHS-RMC group (BHS model rats)),MRT ([1]; N-RMC group (normal rats)),"half-life [1, 3]","half-life [1, 4]",Tmax ([1]; BHS-RMC group (BHS model rats)),Tmax ([1]; N-RMC group (normal rats)),F2 protein expression (F2),"APTT (APTT, PT and TT)","effect on PT compared with blank (APTT, PT and TT)","effect on TT compared with blank (APTT, PT and TT)","effect on prolonging APTT compared with blank (APTT, PT and TT)",MAPK10 mRNA expression (MAPK10),"Cmax increase in BHS-RMC over N-RMC [1, 2]",F7 protein expression (F7),F10 protein expression (F10),further results
"O=c1c(O)c(-c2ccc(O)c(O)c2)oc2cc(O)cc(O)c12 [Quercetin, quercetin]",10000 µg·h/mL,7340 ± 166 µg·h/mL,739.9 ± 4.17 µg/mL,643 ± 19.8 µg/mL,20.4 ± 0.66 h,16.6 ± 0.56 h,15.5 ± 0.54 h,9.97 ± 0.35 h,4 h,4 h,significantly declined,15.2 ± 0.387 s,no significant difference,tendency of prolonging,significant effect,significant decrease,15%,significantly declined,significantly declined,–
"O=C(O)c1ccccc1 [Benzoic acid, benzoic acid]",2320 ± 71.3 µg·h/mL,1880 ± 217 µg·h/mL,213 ± 5.26 µg/mL,144 ± 4.48 µg/mL,13.3 ± 0.79 h,17 ± 2.76 h,–,–,3 h,4 h,–,–,–,–,–,–,49%,–,–,–
"O=Cc1ccc(CO)o1 [5-HMF, 5-hydroxymethylfurfural]",741 ± 20.3 µg·h/mL,1564 ± 4.63 µg·h/mL,111 ± 7.25 µg/mL,413.2 ± 2.01 µg/mL,7.47 ± 0.48 h,4.55 ± 0.03 h,7.33 ± 2.1 h,3.2 ± 0.03 h,0.75 h,3 h,–,–,–,–,–,–,–,–,–,–
"Cc1oc2c(O)cccc2c(=O)c1O [3,8-Dihydroxy-2-methylchromone, 3,8-dihydroxy-2-methylchromone]",757 ± 8.72 µg·h/mL,660 ± 29.9 µg·h/mL,134 ± 3.26 µg/mL,116 ± 2.12 µg/mL,14.1 ± 1.07 h,6.9 ± 0.68 h,19 ± 1.78 h,4.73 ± 0.29 h,0.75 h,0.75 h,–,–,–,–,–,–,16%,–,–,effect on APTT (APTT): significantly extend
oxypaeoniflorin,–,–,–,–,–,–,–,–,–,–,–,15.63 ± 0.45 s,no significant difference,tendency of prolonging,significant effect,significant decrease,–,significantly declined,significantly declined,expression of AKT (AKT): could decrease
"O=C(O)c1cc(O)c(O)c(O)c1 [Gallic acid, gallic acid]",1070 ± 72.9 µg·h/mL,1020 ± 26.6 µg·h/mL,180 ± 11.1 µg/mL,127 ± 2.9 µg/mL,10 ± 0.96 h,17.3 ± 0.8 h,6.33 ± 0.45 h,10.8 ± 0.87 h,1 h,–,–,–,–,–,–,–,42%,–,–,"AUC increase in BHS-RMC over N-RMC [1, 2]: 5%"

# Second part, led by results:
AUC ([1]; BHS-RMC group (BHS model rats)),AUC ([1]; N-RMC group (normal rats)),Cmax ([1]; BHS-RMC group (BHS model rats)),Cmax ([1]; N-RMC group (normal rats)),MRT ([1]; BHS-RMC group (BHS model rats)),MRT ([1]; N-RMC group (normal rats)),"half-life [1, 3]","half-life [1, 4]",Tmax ([1]; BHS-RMC group (BHS model rats)),Tmax ([1]; N-RMC group (normal rats)),Compound,F2 protein expression (F2),"APTT (APTT, PT and TT)","effect on PT compared with blank (APTT, PT and TT)","effect on TT compared with blank (APTT, PT and TT)","effect on prolonging APTT compared with blank (APTT, PT and TT)",MAPK10 mRNA expression (MAPK10),"Cmax increase in BHS-RMC over N-RMC [1, 2]",F7 protein expression (F7),F10 protein expression (F10),further results
45.5 ± 0.83 µg·h/mL,107 ± 1.23 µg·h/mL,10.4 ± 0.23 µg/mL,11.8 ± 0.13 µg/mL,4.63 ± 0.12 h,12.1 ± 0.17 h,4.37 ± 0.15 h,7.84 ± 0.08 h,0.75 h,0.75 h,"COc1ccc(C(C)=O)c(O)c1 [Paeonol, paeonol]",significantly declined,17.23 ± 0.35 s,no significant difference,tendency of prolonging,significant effect,significant decrease,–,significantly declined,significantly declined,"F2 mRNA expression (F2; paeonol 50 μg/mL, RT-qPCR): no effects; time after which the compound was not detected ([1]; oral RMC extract): 8 h; shape of plasma concentration-time profile ([1]; oral RMC extract, both normal and model rats): bimodal (double peak) phenomenon; F7 mRNA expression (F7; paeonol 50 μg/mL, RT-qPCR): no effects"
298 ± 7.6 µg·h/mL,1450 ± 62.3 µg·h/mL,84.2 ± 1.99 µg/mL,201.6 ± 1.86 µg/mL,5.06 ± 0.22 h,15.5 ± 0.94 h,3.6 ± 0.31 h,9.75 ± 0.47 h,0.75 h,–,"C[C@@]12C[C@@]3(O)O[C@@H](O1)[C@]1(COC(=O)c4ccccc4)[C@H]3C[C@@]12O[C@@H]1O[C@H](CO)[C@@H](O)[C@H](O)[C@H]1O [Paeoniflorin, paeoniflorin]",significantly declined,15.07 ± 0.06 s,no significant difference,tendency of prolonging,significant effect,significant decrease,–,significantly declined,significantly declined,time after which the compound was not detected ([1]; oral RMC extract): 12 h
39.9 ± 1.34 µg·h/mL,22.8 ± 1.34 µg·h/mL,2.16 ± 0.11 µg/mL,6.35 ± 0.53 µg/mL,27.1 ± 1.16 h,7.91 ± 0.56 h,17.9 ± 0.84 h,4.93 ± 0.23 h,1 h,0.75 h,"COC(=O)c1ccc(O)cc1 [Methylparaben, methyl paraben]",–,–,–,–,–,–,–,–,–,–
